In brackets after ≈: the same amount, converted by molar mass. Where two headings read alike, the source gives them in different places.
Assays:
[1] = tested on: C. elegans infected with MRSA strain MW2; format: in vivo; settings: for C. elegans animals surviving MRSA infection: concentrations above the MIC
Description: The C. elegans-MRSA liquid infection assay has been described (Rajamuthiah et al. Plos One. 2014; 9(2):e89189). In brief, 4,500 glp-4 (bn2); sek-1(km4) L1 hatchlings were grown on SK-HB101 agar plates for 52 hours at the restrictive temperature of 25° C. until animals became sterile young adults and later harvested with M9 buffer. S. aureus MW2 was grown overnight at 37° C. in TSB, first under aerobic conditions and later shifted to anaerobic growth conditions at 37° C. The infection assay was performed in standard 384-well assay plates, in the presence of the compound being tested or 1% dimethyl sulfoxide (DMSO) as a control. Bacteria were added to the wells at a final OD600 of 0.06, followed by the use of a Complex Object Parametric Analyzer and Sorter (COPAS) large particle sorter (Union Biometrica, Holliston, Mass., USA) to transfer 15 adult worms to each well of an assay plate. After 5 days of incubation in a humidified chamber at 25° C., the bacteria and other debris were washed from the wells with a microplate washer and the worms were stained with the vital dye Sytox Orange (Life Technologies). After overnight incubation at 25° C. in a humidified chamber, the plates were imaged using an Image Xpress Micro automated microscope (Molecular Devices, Sunnyvale, Calif., USA), capturing both transmitted light and TRITC (535 nm excitation, 610 nm emission) fluorescent images with a 2× objective. The images from the infection assay were processed using the open source image analysis software CellProfiler and analysis modules as described previously. The ratio of Sytox worm area to bright field worm area, and the resultant percentage survival data, is calculated by the software for each well of the assay plates. The assay was performed in triplicate comparing the survival of worms at various concentrations of drugs.
Killing assays were carried out as described in Methods using S. aureus MRSA MW2 and 10 μg/ml retinoids, 10 μg/ml vancomycin (positive control), or 1% DMSO (negative control) at 25° C. for 5 days. Data are representative of three independent experiments. (B) Chemical structures of synthetic retinoids. (C) Growth of MRSA strain MW2 exposed to the indicated concentrations of compounds was quantified by measuring OD600 after 18 h in tryptic soy broth (TSB). (D) C. elegans infected with MRSA strain MW2 was treated with indicated concentrations of compounds. Percent survival of C. elegans was normalized to C. elegans treated with DMSO. (E-F) MRSA persisters prepared as described in Methods were treated with the indicated concentrations of each retinoid. Viability was measured by serial dilution and plating on TSA plates. The data points on the x-axis are below the level of detection (2×10^2 CFU/ml). (E,F) Results are shown as means±s.d.; n=3.

[2] = tested on: K. pneumonia WGLW2; experiment: MIC, broth microdilution; format: cell-based, Klebsiella pneumoniae; settings: Klebsiella pneumoniae; K. pneumonia WGLW2; read-out: Minimum inhibitory concentration
From the text: (§1) Bacterial strains and growth conditions and persister isolation: methicillin-resistant S. aureus (MRSA) strain MW2 BAA-1707, vancomycin-resistant S. aureus strain VRS 1, 11 clinical S. aureus isolates, 8 clinical Enterococcus faecium isolates, Klebsiella pneumoniae WGLW2 (BEI Resources, Manassas, Va., USA), Acinetobacter baumannii ATCC 17978, Pseudomonas aeruginosa PA14, and Enterobacter aerogenes ATCC 13048 were used to test antimicrobial activity (See Table 1a). S. aureus and E. faecium strains were grown in tryptic soy broth (TSB) (BD, Franklin Lakes, N.J., USA) or brain-heart infusion (BHI) broth (BD, Franklin Lakes, N.J., USA), respectively at 37° C. at 225 rpm. K. pneumoniae, A. baumannii, P. aeruginosa, and E. aerogenes were grown in Luria Bertani (LB) broth (BD, Franklin Lakes, N.J., USA).
(§2) To test the bacterial MICs for compounds described herein, the total volume in each well was 100 μl of test compounds and bacterial cells in MH broth. […] The bacterial concentration was adjusted to an initial OD600 of 0.03. After incubation at 35° C. for 18 hrs, the absorbance was measured at 595 nm in accordance with CLSI document M07-A8. The MICs of antibiotics were determined by the standard microdilution method recommended by the Clinical and Laboratory Standards Institute.

[3] = tested on: S. aureus persister cells (stationary phase); experiment: Persister killing assay; format: cell-based, Staphylococcus aureus; settings: for viability of MW2 persister cells, single agent: 4 μg/ml CD437 or CD1530 or 10 μg/ml gentamicin alone; for time to complete eradication of MW2 persisters, combination: 4 μg/ml retinoid plus 10 μg/ml gentamicin; for eradication of persisters formed by S. aureus strain VRS1 and 11 clinical S. aureus strains: 10×MIC, 4 h; for bactericidal concentration against MRSA persisters: MRSA MW2 persisters
Description: Persister killing assay. […] Persister cells of these 13 S. aureus strains were developed by growing cultures overnight to stationary phase at 37° C. at 225 rpm. The overnight cultures were washed three times with PBS and diluted to ˜10^7 CFU/ml with the same buffer, which is the same concentration as used in the killing kinetics assay described herein. 1 ml of the persister suspension containing appropriate concentrations of antibiotics was added to the wells of a 2 ml deep well assay block (Corning Costar 3960) and incubated at 37° C., with shaking at 225 rpm. At specific times, 50 μl samples were removed, serially diluted and spot-plated on TSA plates to enumerate the number of live cells. These experiments were conducted in triplicate.

[4] = tested on: E. faecium; experiment: MIC, broth microdilution; format: cell-based, Enterococcus faecium; settings: for MIC: Enterococcus faecium; for susceptibility of E. faecium: result in words
Method in brief: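 MIC by CLSI broth microdilution (M07-A8) in MH broth; E. aerogenes, K. pneumoniae and A. baumannii pre-grown in LB, E. faecium in BHI, at 37° C. Inoculum at initial OD600 0.03, incubated 18 hrs at 35° C., growth read as absorbance at 595 nm.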

[5] = tested on: E. aerogenes ATCC 13048; experiment: MIC, broth microdilution; format: cell-based, Enterobacter aerogenes; settings: Klebsiella aerogenes, ATCC13048; E. aerogenes ATCC 13048; read-out: Minimum inhibitory concentration
From the text: as §1, §2

[6] = E. faecium C68, read-out: Minimum inhibitory concentration
[7] = E. faecium D14, read-out: Minimum inhibitory concentration
[8] = E. faecium D24, read-out: Minimum inhibitory concentration
[9] = E. faecium D25, read-out: Minimum inhibitory concentration
[10] = E. faecium D29, read-out: Minimum inhibitory concentration
[11] = E. faecium E007, read-out: Minimum inhibitory concentration
[12] = E. faecium WB213, read-out: Minimum inhibitory concentration
[13] = E. faecium WC176, read-out: Minimum inhibitory concentration

SMILES	C. elegans animals surviving MRSA infection [1] [%]	toxicity to C. elegans ([1]; up to 50 μg/ml)	MIC [2] [mg/L]	viability of MW2 persister cells, single agent [3]	time to complete eradication of MW2 persisters, combination [3] [h]	eradication of persisters formed by S. aureus strain VRS1 and 11 clinical S. aureus strains ([3]; result in words)	bactericidal concentration against MRSA persisters [3] [µg/mL]	MIC [4, 6] [mg/L]	MIC [4, 7] [mg/L]	MIC [4, 8] [mg/L]	MIC [4, 9] [mg/L]	MIC [4, 10] [mg/L]	MIC [4, 11] [mg/L]	MIC [4, 12] [mg/L]	MIC [4, 13] [mg/L]	MIC ([4]; E. faecium, (range given for E. faecium and E. faecalis), read-out: MIC) [mg/L]	susceptibility of E. faecium [4]	MIC [5] [mg/L]	rescue of C. elegans from MRSA infection ([1]; result in words)	eradication of S. aureus strain MW2 persisters ([3]; 8×MIC, result in words)
O=C(O)c1ccc(-c2ccc3cc(O)c(C45CC6CC(CC(C6)C4)C5)cc3c2)cc1 [CD1530, 4-(6-hydroxy-7-tricyclo[3.3.1.13,7]dec-1-yl-2-naphthalenyl)-benzoic acid]	100	nontoxic	> 64	did not significantly affect	≤ 4	annihilated	8	2 (≈ 5.02 µM)	2 (≈ 5.02 µM)	1 (≈ 2.51 µM)	1 (≈ 2.51 µM)	1 (≈ 2.51 µM)	2 (≈ 5.02 µM)	1 (≈ 2.51 µM)	2 (≈ 5.02 µM)	2 to 4 (≈ 5.02 to 10 µM)	susceptible	> 64	–	–
O=C(O)c1ccc2cc(-c3ccc(O)c(C45CC6CC(CC(C6)C4)C5)c3)ccc2c1 [CD437, 6-(4-hydroxy-3-tricyclo[3.3.1.13,7]dec-1-ylphenyl)-2-naphthalenecarboxylic acid]	100	–	> 64	did not significantly affect	≤ 3	annihilated	8	–	–	1 (≈ 2.51 µM)	1 (≈ 2.51 µM)	1 (≈ 2.51 µM)	–	1 (≈ 2.51 µM)	–	–	susceptible	> 64	–	–
O=C(O)/C=C/c1ccc(-c2ccc(O)c(C34CC5CC(CC(C5)C3)C4)c2)cc1 [Adarotene, (2E)-3-(4′-Hydroxy-3′-tricyclo[3.3.1.13,7]dec-1-yl[1,1′-biphenyl]-4-yl)-2-propenoic acid]	–	–	> 64	–	–	not	–	4 (≈ 10.7 µM)	4 (≈ 10.7 µM)	2 (≈ 5.34 µM)	4 (≈ 10.7 µM)	2 (≈ 5.34 µM)	4 (≈ 10.7 µM)	2 (≈ 5.34 µM)	4 (≈ 10.7 µM)	–	–	> 64	rescued	did not
